# System: P12-Ichikawa
# Assay: cell viability relative to DMSO control; higher = less cytotoxic
# Details: 48 h
# Procedure, shortened: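 Viability values are per-plate percentages of DMSO wells, with background from cell-free wells. Library compounds in DMSO were pin-dosed, in an 11-point threefold series from 47 μM to 0.79 nM, onto NOMO1 or SEM (500 cells/well) or P12-Ichikawa (1000 cells/well) leukemia cells in 1536-well plates (5 μl). Those cells had been adapted for at least four passages in each medium, and CellTiter-Glo One luminescence was read after 48 h at 37°C.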
# [1] = HPLM + 10% dialyzed FBS, 0.000781 µM
# [2] = HPLM + 10% dialyzed FBS, 0.00234 µM
# [3] = HPLM + 10% dialyzed FBS, 0.00702 µM
# [4] = HPLM + 10% dialyzed FBS, 0.0211 µM
# [5] = HPLM + 10% dialyzed FBS, 0.0632 µM
# [6] = HPLM + 10% dialyzed FBS, 0.19 µM
# [7] = HPLM + 10% dialyzed FBS, 0.569 µM
# [8] = HPLM + 10% dialyzed FBS, 1.71 µM
# [9] = HPLM + 10% dialyzed FBS, 5.12 µM
# [10] = HPLM + 10% dialyzed FBS, 15.4 µM
# [11] = HPLM + 10% dialyzed FBS, 46.1 µM
# [12] = RPMI 5 mM glucose + 10% FBS, 0.000781 µM
# [13] = RPMI 5 mM glucose + 10% FBS, 0.00234 µM
# [14] = RPMI 5 mM glucose + 10% FBS, 0.00702 µM
# [15] = RPMI 5 mM glucose + 10% FBS, 0.0211 µM
# [16] = RPMI 5 mM glucose + 10% FBS, 0.0632 µM
# [17] = RPMI 5 mM glucose + 10% FBS, 0.19 µM
# [18] = RPMI 5 mM glucose + 10% FBS, 0.569 µM
# [19] = RPMI 5 mM glucose + 10% FBS, 1.71 µM
# [20] = RPMI 5 mM glucose + 10% FBS, 5.12 µM
# [21] = RPMI 5 mM glucose + 10% FBS, 15.4 µM
# [22] = RPMI 5 mM glucose + 10% FBS, 46.1 µM
# [23] = RPMI 5 mM glucose + 10% dialyzed FBS, 0.000781 µM
# [24] = RPMI 5 mM glucose + 10% dialyzed FBS, 0.00234 µM
# [25] = RPMI 5 mM glucose + 10% dialyzed FBS, 0.00702 µM
# [26] = RPMI 5 mM glucose + 10% dialyzed FBS, 0.0211 µM
# [27] = RPMI 5 mM glucose + 10% dialyzed FBS, 0.0632 µM
# [28] = RPMI 5 mM glucose + 10% dialyzed FBS, 0.19 µM
# [29] = RPMI 5 mM glucose + 10% dialyzed FBS, 0.569 µM
# [30] = RPMI 5 mM glucose + 10% dialyzed FBS, 1.71 µM
# [31] = RPMI 5 mM glucose + 10% dialyzed FBS, 5.12 µM
# [32] = RPMI 5 mM glucose + 10% dialyzed FBS, 15.4 µM
# [33] = RPMI 5 mM glucose + 10% dialyzed FBS, 46.1 µM
Structure (SMILES),cell viability [1],cell viability [2],cell viability [3],cell viability [4],cell viability [5],cell viability [6],cell viability [7],cell viability [8],cell viability [9],cell viability [10],cell viability [11],cell viability [12],cell viability [13],cell viability [14],cell viability [15],cell viability [16],cell viability [17],cell viability [18],cell viability [19],cell viability [20],cell viability [21],cell viability [22],cell viability [23],cell viability [24],cell viability [25],cell viability [26],cell viability [27],cell viability [28],cell viability [29],cell viability [30],cell viability [31],cell viability [32],cell viability [33]
Cl.c1cnc2cc3c(cc2n1)C1CNCC3C1,108%,111%,114%,114%,119%,114%,117%,122%,114%,114%,106%,106%,115%,121%,117%,122%,117%,127%,118%,127%,130%,130%,106%,113%,112%,116%,123%,114%,121%,123%,121%,116%,120%
COC1=CC=C2Nc3cc(Cl)ccc3C(N=C3C=C(CN4CCCC4)C(=O)C(CN4CCCC4)=C3)=C2N1,116%,116%,116%,122%,123%,123%,120%,127%,124%,117%,103%,110%,131%,114%,130%,133%,130%,133%,132%,129%,122%,87.6%,113%,123%,120%,126%,120%,115%,127%,125%,115%,117%,93%
COC[C@H](NC(=O)c1cnc(C)s1)C(=O)N[C@@H](COC)C(=O)N[C@@H](Cc1ccccc1)C(=O)[C@@]1(C)CO1,96.6%,99.8%,98.3%,95%,105%,69.8%,4.41%,3.23%,1.91%,1.12%,2.28%,89%,98.2%,99.8%,96.3%,89.8%,78.5%,3.57%,2.76%,1.79%,1.04%,1.83%,90.8%,93.5%,94.3%,95.7%,87.4%,58.1%,3.41%,2.83%,1.67%,0.842%,1.82%
